This test concerns the target ATPase II (rATPase II), ATPase domain of IrtB (Mycobacterium tuberculosis, UniProt P9WQJ7).

ATPase II (rATPase II), ATPase domain of IrtB, sequence (P9WQJ7 313-579): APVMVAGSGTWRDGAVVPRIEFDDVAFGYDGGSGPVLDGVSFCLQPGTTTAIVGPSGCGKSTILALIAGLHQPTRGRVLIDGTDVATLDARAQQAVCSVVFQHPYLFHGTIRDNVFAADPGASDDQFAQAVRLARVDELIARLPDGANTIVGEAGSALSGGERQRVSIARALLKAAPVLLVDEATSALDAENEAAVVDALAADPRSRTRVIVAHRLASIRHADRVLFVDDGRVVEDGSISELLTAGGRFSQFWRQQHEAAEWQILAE

Take `Nc1ncnc2c1ncn2[C@@H]1O[C@H](COP(=O)(O)OP(=O)(O)OP(=O)(O)O)[C@@H](O)[C@H]1O` [ATP]: the “analytical gel filtration (ATP-dependent dimerization)” value is on record as “ATPase II (the ATPase belonging to IrtB) dimers were captured as stable dimers”.

These data come from paper PMC11596928, “Substrate-Induced Structural Dynamics and Evolutionary Linkage of Siderophore-Iron ABC Transporters of Mycobacterium tuberculosis” (Medicina, 2024).
